{
  "source": "patent EP0155104A2",
  "about": "“Free analyte assay” (priority 1984, dated 1985)",
  "key": {"serum proteins": {"system": "serum proteins", "assay": "Amerlex free T4 radioimmunoassay: Bo value with added blocking agent", "assay_type": "binding"}, "[1]": {"molecular_target": "T1, thyroxine binding globulin (TBG) (Homo sapiens, UniProt P05543)", "T1 sequence (P05543 21-415)": "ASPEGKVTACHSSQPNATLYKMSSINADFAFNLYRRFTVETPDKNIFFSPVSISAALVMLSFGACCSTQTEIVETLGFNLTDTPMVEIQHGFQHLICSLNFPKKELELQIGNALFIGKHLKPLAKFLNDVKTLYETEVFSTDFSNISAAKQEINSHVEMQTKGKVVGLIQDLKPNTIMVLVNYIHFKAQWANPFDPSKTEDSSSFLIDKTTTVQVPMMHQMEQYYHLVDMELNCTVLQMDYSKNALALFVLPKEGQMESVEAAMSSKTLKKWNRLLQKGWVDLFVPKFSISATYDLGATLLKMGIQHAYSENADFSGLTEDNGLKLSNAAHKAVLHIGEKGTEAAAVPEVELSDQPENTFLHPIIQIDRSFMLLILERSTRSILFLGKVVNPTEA", "conditions": "in body fluids; cited from earlier work"}, "albumin (Alb)": {"molecular_target": "albumin (Alb) (Homo sapiens, UniProt P02768)", "sequence (P02768 25-609)": "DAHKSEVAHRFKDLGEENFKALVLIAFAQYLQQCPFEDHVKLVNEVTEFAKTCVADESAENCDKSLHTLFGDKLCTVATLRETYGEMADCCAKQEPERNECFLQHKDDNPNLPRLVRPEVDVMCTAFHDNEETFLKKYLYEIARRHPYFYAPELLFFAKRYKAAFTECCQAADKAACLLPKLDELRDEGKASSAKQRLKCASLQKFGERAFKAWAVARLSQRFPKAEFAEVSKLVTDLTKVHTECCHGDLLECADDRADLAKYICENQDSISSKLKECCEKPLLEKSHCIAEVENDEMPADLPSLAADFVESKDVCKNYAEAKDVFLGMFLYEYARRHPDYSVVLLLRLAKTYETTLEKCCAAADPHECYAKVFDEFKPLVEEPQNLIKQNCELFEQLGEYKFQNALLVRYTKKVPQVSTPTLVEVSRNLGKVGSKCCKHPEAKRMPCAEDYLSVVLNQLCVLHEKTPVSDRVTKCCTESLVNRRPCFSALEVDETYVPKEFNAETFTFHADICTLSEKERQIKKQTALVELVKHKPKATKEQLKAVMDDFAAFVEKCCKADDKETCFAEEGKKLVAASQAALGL", "conditions": "cited from earlier work"}, "natural protein binders": {"system": "natural protein binders", "conditions": "in body fluids; cited from earlier work"}, "[2]": {"molecular_target": "thyroxine binding prealbumin (TBPA) (Homo sapiens, UniProt P02766)", "conditions": "in body fluids; cited from earlier work"}, "[3]": {"conditions": "blocking agent 10^-3 M, no addition: 67.7"}, "[4]": {"conditions": "blocking agent 10^-2 M, no addition: 67.7"}},
  "note": "“And” between values parts separate entries of the source, which are not always exact repeats. Equal entries are not always repeated. Where two headings read alike, the source gives them in different places.",
  "data": [
    {"smiles": "O=[N+]([O-])c1ccc(O)c([N+](=O)[O-])c1", "note": "[2,4-dinitrophenol]", "values": [
      {"measurement": "Bo (% tracer bound)", "setting": "serum proteins; [3]", "result": 60.0, "unit": "%"}
    ]},
    {"smiles": "O=C(O)c1c(O)cccc1O", "note": "[Gamma resorcylate, sodium gamma-resorcylate (2,6-dihydroxybenzoate)]", "values": [
      {"measurement": "Bo (% tracer bound)", "setting": "serum proteins; [4]", "result": 51.6, "unit": "%"},
      {"measurement": "Bo (% tracer bound)", "setting": "serum proteins; [3]", "result": 70.3, "unit": "%"}
    ]},
    {"smiles": "O=C(O)c1cc(O)ccc1O", "note": "[Gentisate, sodium gentisate (2,5-dihydroxybenzoate)]", "values": [
      {"measurement": "Bo (% tracer bound)", "setting": "serum proteins; [4]", "result": 71.8, "unit": "%"},
      {"measurement": "Bo (% tracer bound)", "setting": "serum proteins; [3]", "result": 70.5, "unit": "%"}
    ]},
    {"smiles": "O=C(O)c1cc(S(=O)(=O)O)ccc1O", "note": "[SSA, 5-sulphosalicylic acid]", "values": [
      {"measurement": "Bo (% tracer bound)", "setting": "serum proteins; SSA 1x10^-2 M, no SSA: 65", "result": 82.5, "unit": "%"},
      {"measurement": "Bo (% tracer bound)", "setting": "serum proteins; SSA 1x10^-3 M, no SSA: 65", "result": 74, "unit": "%"},
      {"measurement": "Bo (% tracer bound)", "setting": "serum proteins; SSA 2x10^-2 M, T4-analogue tracer bound to antiserum at zero T4, no SSA: 65", "result": 82, "unit": "%"},
      {"measurement": "Bo (% tracer bound)", "setting": "serum proteins; SSA 2x10^-3 M, no SSA: 65", "result": 80, "unit": "%"},
      {"measurement": "Bo (% tracer bound)", "setting": "serum proteins; SSA 2x10^-4 M, no SSA: 65", "result": 68, "unit": "%"},
      {"measurement": "Bo (% tracer bound)", "setting": "serum proteins; SSA 5x10^-3 M, no SSA: 65", "result": 78, "unit": "%"},
      {"measurement": "Bo (% tracer bound)", "setting": "serum proteins; SSA 5x10^-4 M, no SSA: 65", "result": 72, "unit": "%"},
      {"measurement": "Bo (% tracer bound)", "setting": "serum proteins; SSA 5x10^-5 M, no SSA: 65", "result": 66, "unit": "%"}
    ]},
    {"smiles": "NC(=O)c1ccccc1O", "note": "[Salicylamide, salicylamide]", "values": [
      {"measurement": "Bo (% tracer bound)", "setting": "serum proteins; [4]", "result": 43.0, "unit": "%"},
      {"measurement": "Bo (% tracer bound)", "setting": "serum proteins; [3]", "result": 67.5, "unit": "%"}
    ]},
    {"smiles": "O=C([O-])c1ccccc1O.[Na+]", "note": "[Salicylate, sodium salicylate]", "values": [
      {"measurement": "Bo (% tracer bound)", "setting": "serum proteins", "result": "72.6% and 69.5%"}
    ]},
    {"smiles": "N[C@@H](Cc1cc(I)c(Oc2ccc(O)c(I)c2)c(I)c1)C(=O)O", "note": "[T3, Tri-iodothyronine]", "values": [
      {"measurement": "share of the bound fraction bound to TBG", "setting": "[1]", "result": 60, "unit": "%"},
      {"measurement": "share of the bound fraction bound to Alb", "setting": "albumin (Alb)", "result": 25, "unit": "%"},
      {"measurement": "in free form", "setting": "natural protein binders", "result": 0.3, "unit": "%"},
      {"measurement": "share of the bound fraction bound to TBPA", "setting": "[2]", "result": 15, "unit": "%"}
    ]},
    {"smiles": "N[C@@H](Cc1cc(I)c(Oc2cc(I)c(O)c(I)c2)c(I)c1)C(=O)O", "note": "[T4, Thyroxine]", "values": [
      {"measurement": "share of the bound fraction bound to TBG", "setting": "[1]", "result": 70, "unit": "%"},
      {"measurement": "bound to natural protein binders", "setting": "natural protein binders", "result": 99.97, "unit": "%"},
      {"measurement": "share of the bound fraction bound to TBPA", "setting": "[2]", "result": 20, "unit": "%"}
    ]}
  ]
}
